Common to all, as to assay type: functional, cell-based
The test system of experiment [1] is LM. As to the kind of experiment: Induction of NGF secretion in LM cells at 50 uM after 24 hrs. To be noted: Mus musculus.
Experiment [2] relates to KB. As to the kind of experiment: Cytotoxicity against human KB cell line by [3H] thymidine incorporation assay.
For experiment [3], the system named is PC-12. As to the kind of experiment: Cytotoxicity against rat PC12 cell line by [3H] thymidine incorporation assay. To be noted: PC-12, 24 h.
For experiment [4], the system named is LM. As to the kind of experiment: Cytotoxicity against mouse LM cell line by [3H] thymidine incorporation assay. For orientation: Dividing cells build labelled thymidine or BrdU into new DNA.

pIC50: −log10 of the molar value. Active and inactive are the calls of the source. The rule behind the calls is not given here. Residues, ends and D or L forms follow the SMILES beside them. *: point of attachment. Octanoyl = CCCCCCCC(=O)*

In the case of `CCCCCCCC(=O)N[C@@H](CC(N)=O)C(=O)N[C@@H](CCC(N)=O)C(=O)N[C@H](C=O)CC(C)C` (Octanoyl-Asn-Gln-Leu-aldehyde), the result in experiment [1] was Active. In addition, the pIC50 (commonly −log10 of the IC50, conventionally taken in molar units) is 5.32 in experiment [2], 5.78 in experiment [3] and 5.48 in experiment [4].
The matching figures for `CCCCCCCCC[C@@H](O)CC(=O)N[C@@H](CC(N)=O)C(=O)N[C@@H](CCC(N)=O)C(=O)N[C@H](C=O)CC(C)C` [FELLUTAMIDE B]: “Active”, 6.46, 6.36 and 6.32.

These data come from ChEMBL document CHEMBL1138927, “Neurotrophic peptide aldehydes: solid phase synthesis of fellutamide B and a simplified analog” (Bioorg Med Chem Lett, 2006).
